The test system of data set [1] is SCC cells. Kind of data set: Incucyte timelapse growth of SCC cells (cell line not specified). Format: cell-based, human. Particulars: SCCs cultured on HA coated plates. The method, then: For Incucyte assays, 1000 cells were plated in triplicate for each condition, in a 48-well plate. Plates were imaged every 3 hours for 7 days.
Having established that FRMD4A has a functional role in SCC proliferation and tumour growth and that it is also modulating the differentiation of such cells, in part perhaps via cancer stem cells and is a key mediator of the Hippo pathway control in SCCs, the present inventors recognised that FRMD4A represents a potential target for therapeutic options. Currently many targeted antibody therapies are in clinical use or undergoing trials to determine their efficacy in the treatment of several malignant and non-malignant diseases. To test if any of the generated antibodies developed against FRMD4A may have a blocking effect on SCCs, the antibodies were added to cells grown in the Incucyte timelapse imaging system.

Data set [2] has as its system CD44 and FRMD4A staining. Kind of data set: Immunostaining of cells grown on HA coated coverslips. Format: cell-based, human.
Data set [3] relates to SCC13 cells. Kind of data set: Colony forming assay, SCC13. The class given is cell-based, human. Particulars: plates coated with HA. As for the experimental part: For colony forming assays, 100 cells were plated in triplicate in 10 cm plates. After 14 days, cultures were fixed and stained with 1% rhodamine B and 1% Nile blue (Acros Organic). Colony-forming efficiency was defined as the percentage of plated cells that formed a colony of three or more cells.

The conditions of data set [4]: injection in the skin and knee joint; cited from earlier work.
Data set [5] has as its system SCC13 back skin xenograft. Kind of data set: SCC13 back skin xenograft, hyaluronic acid treatment. The class given is in vivo, mouse. As for the experimental part: (§1) All mice used were NOD.Cg-Prkdc^scid I12rg^tm1Wj1/SzJ or NOD/SCID Gamma (NSG) as they are commonly known. Mice were originally purchased from the Jackson Laboratories (Maine, USA) and then bred in-house. Experiments were subject to Cancer Research UK ethical review and were performed under the terms of a U.K. Government Home Office license. Tongue xenografts were carried out using inhalation anaesthesia and injection into the mucosa with a 30 g needle and 1 ml syringe. Mice were grafted using inhalation anaesthesia. An area of skin on the back of each mouse was shaved and cleaned with a betadine solution. Using a 6 mm punch biopsy punch a full thickness wound was created, into which the silicone chamber was inserted and stapled in place. A preparation of cells could then be injected into the chamber. After one week the top of the silicone chamber was cut off to allow the tumour to develop exposed to the normal skin-air interface. After a further week the whole silicone chamber was carefully removed. Mice were scanned with the Xenogen IVIS following an i.p. injection of luciferin (10 μl/g).
Mice were grafted into the back skin with 1×10E6 SCC13 cells.
After one week an initial measurement was made with the Xenogen IVIS. Following this, each mouse was directly injected into the tumour with 200 μl of 0.1% HA. […]

Data set [6] deals with normal human keratinocytes. Kind of data set: Induced differentiation of normal human keratinocytes. Format: cell-based. The source says: To determine the expression of FRMD4A mRNA in normal human skin we carried out in-situ hybridisations on normal human foreskin. […] Using the Zeiss PALM Laser Capture Microdissection system, samples were collected separately from the basal and granular layers of human abdomen skin sections. […] Levels of FRMD4A were contrary to this, with high levels in the less differentiated basal layer, which dropped to almost nothing in the more differentiated granular layer (FIG. 1B). Similarly, normal human keratinocytes grown in serum free culture were induced to differentiate, by the addition of AG1478 and BMP2/7 (FIG. 1C). Differentiation of the keratinocytes was confirmed by increased levels of transglutaminase in the presence of these agents alone compared to treatment with vehicle alone. Addition of both together led to expression of even higher levels of the differentiation marker TG-1. FRMD4A levels were high in the vehicle treated sample, but became barely detectable in the differentiated samples (FIG. 1C) showing that FRMD4A is associated with less differentiated cell types.

The test system of data set [7] is SCC25 tongue xenograft. Briefly: SCC25 tongue xenograft, 17-DMAG treatment. Format: in vivo, mouse. Particulars: weekly i.p. injections, compared to vehicle control. The method, then: as §1
Mice were tongue grafted with 1×10E5 SCC25 cells. After one week an initial measurement was made with the Xenogen IVIS. Following this, each mouse was i.p injected with either 17-DMAG or vehicle control. […]

Data set [8] concerns SCC13 cells. Briefly: SCC13 cells grown in the presence of 17-DMAG in vitro. The class given is cell-based, human. Particulars: range of concentrations.

“Also recorded” adds a separate entry of the source.

In the case of hyaluronic acid [HA], in data set [1], the overall growth rate result was “decrease in growth rate; also recorded: reduces the growth of SCCs”. In data set [2], the CD44 staining entry is recorded as “increase in CD44 staining” and the “nuclear FRMD4A staining” value is “loss of nuclear FRMD4A staining”. In addition, in data set [3], the average colony area result is recorded as “reduction in average colony area”, the “average colony staining intensity” value was “reduction” and the colony forming efficiency result was “reduction in colony forming efficiency”. Moreover, the toxic effects result in data set [4] is recorded as “no apparent toxic effects”. Further, the survival result in data set [5] (HA injection of xenograft tumours) was “increased survival”. The tumour growth rate result in data set [5] (weekly intra-tumour injection, compared with PBS) is recorded as “reduced growth rate; also recorded: reduced the growth of the tumour”.

As for `COc1cc2ncnc(Nc3cccc(Cl)c3)c2cc1OC` [AG1478], the FRMD4A levels result in data set [6] was “downregulation of FRMD4A levels”. Moreover, the TG1 levels result in data set [6] (differentiation marker) was “upregulation of TG1 levels”.

Take `CO[C@H]1/C=C\C=C(/C)C(=O)NC2=CC(=O)C(NCCN(C)C)=C(C[C@@H](C)C[C@H](OC)[C@H](O)[C@@H](C)/C=C(\C)[C@@H]1OC(N)=O)C2=O` [17-DMAG, 17-Dimethylaminoethylamino-17-demethoxygeldanamycin]: the progression of tumours entry in data set [7] is listed as “slower progression of their tumours”. Also, the “killing of cells in vitro” value in data set [8] is “readily killed over a range of concentrations; also recorded: dramatic effect”.

The values are drawn from patent publication US20140023589A1, “FRMD4A ANTAGONISTS AND THEIR USES” (CANCER RESEARCH TECHNOLOGY LIMITED, priority 2011, published 2014).
